One series has as its target mTOR (Homo sapiens, UniProt P42345). The experiment in a line: mTOR HTR-FRET Assay. The series is classed as biochemical. How it is done:
The following is an example of an assay that can be used to determine the mTOR inhibitory activity of a test compound. Reagents are prepared as follows:
“Simple TOR buffer” (used to dilute high glycerol TOR fraction): 10 mM Tris pH 7.4, 10 mM NaCl, 0.1% Tween-20, 1 mM DTT (from 1M stock frozen at −20° C. just prior to use). For convenience a large quantity of “Simple TOR buffer” w/o DTT can be stored at 4° C. It can be brought to room temperature and DTT added just prior to dilution of TOR fraction.
5XKB/5XMn/5×ATP solution (used to dilute substrate GST-p70S6kin 81 a.a. just prior to use) (40 ml screen quantity shown):
Enzyme solution: Dilute TOR fraction 1:14 in “Simple TOR Buffer”. For current lot that is 640 μg/ml TOR fraction diluted 14× to yield 45.7 μg/ml TOR in buffer (i.e. 7.85 ml TOR pooled fraction+102.1 ml Simple TOR buffer=110 ml 14× diluted TOR fraction). Each Enzyme Lot must be QC'd prior to assay.
Substrate solution: This may be prepared just prior to assay if preferred. Dilute 5.3 mg/ml GST-p70S6kinase fragment stock to 3.5 μg/ml (97 nM) working stock in 5XKB/5XMn/5×ATP solution (i.e. 26.41 μL (5.3 mg/ml) GST-p70S6+40 ml 5XKB/5XMn/5×ATP=40 ml 3.5 μg/ml (97 nM)).
Assay Buffer (for dilution of Antibodies used in Antibody Detection Reagent):
Antibody Detection Reagent (this reagent should be made just prior to addition to Assay Plates):
Using PlateTrak program (Screen) or Matrix Pipettor (SAR), 19.5 μL of diluted TOR fraction is added to assay plate in all test, reference or positive control wells. 19.5 μL of “Simple TOR buffer” is added to all negative control wells. If treating multiple plates with the same compounds, can increase volume of enzyme to multiples of 19.5 μL in a tall 384 well polypropylene plate.
Using EP3, 0.5 μl of test, reference or control DMSO is added to each well with mixing. Plates are incubated for 30 minutes at room temperature.
Using PlateTrak program (Screen) or Matrix Pipettor (SAR) 5 μL of 5XKB/5XMn/5×ATP/5× substrate solution is added to each well of the assay plate to start the reaction. The solutions are mixed well and incubated for 2 hours at room temperature.
Using PlateTrak program (Screen) or Matrix Pipettor (SAR) 5 μL of 60 mM EDTA is added to stop the reaction. The solutions are mixed well and allowed to sit for 15-20 minutes before the next step.
Using PlateTrak program (Screen) or Matrix Pipettor (SAR) 10 μl of Antibody Detection Reagent is added. The solutions are mixes well and incubated for 5 hours to O/N to allow antibodies to form complexes with phosphorylated substrate.
Plates are read on AnalystHT using protocol Multi-Method protocol.

Each structure is given as a SMILES string.

In general, IC50 refers to the concentration needed to halve the response being measured. Read a low IC50 as greater potency. The term melting point denotes the temperature of the solid-liquid transition. Take `NC(=O)c1nc(-c2cccc(O)c2)nc2c1[nH]c(=O)n2-c1c(F)cccc1F` [Compound 16, 9-(2,6-difluorophenyl)-2-(3-hydroxyphenyl)-8-oxo-8,9-dihydro-7H-purine-6-carboxamide]: the melting point was 355 to 358 °C. Also, the half-maximal inhibitory concentration (IC50) at mTOR was in the range of 0.1 to 5 µM.

As for `NC(=O)c1nc(-c2cccnc2)nc2c1[nH]c(=O)n2C1CCCCCC1` [Compound 17, 9-cycloheptyl-8-oxo-2-(pyridin-3-yl)-8-9-dihydro-7H-purine-6-carboxamide], on mTOR, the IC50 lay in the range of 0.1 to 5 µM.

On to `COc1ccccc1-n1c(=O)[nH]c2c(C(N)=O)nc(-c3cccc4ncccc34)nc21` [Compound 18, 9-(2-methoxyphenyl)-8-oxo-2-(quinolin-5-yl)-8,9-dihydro-7H-purine-6-carboxamide], for which the melting point lay within 335 to 337 °C. The IC50 against mTOR was > 30 µM.

The compound `COc1ccccc1-n1c(=O)[nH]c2c(C(N)=O)nc(C3CCCC3)nc21` [Compound 19, 2-cyclopentyl-9-(2-methoxyphenyl)-8-oxo-8,9-dihydro-7H-purine-6-carboxamide] gave a melting point of 244 to 246 °C. Further, the IC50 at mTOR is > 30 µM.

In the case of `COc1ccccc1-n1c(=O)[nH]c2c(C(N)=O)nc(-c3cccc(C(F)(F)F)c3)nc21` [Compound 20, 9-(2-methoxyphenyl)-8-oxo-2-(3-(trifluoromethyl)phenyl)-8,9-dihydro-7H-purine-6-carboxamide], the melting point was in the range of 271 to 275 °C. For the same compound, at mTOR, the IC50 is > 30 µM.

On to `COc1ccc(-c2nc(C(N)=O)c3[nH]c(=O)n(-c4ccccc4OC)c3n2)cn1` [Compound 21, 9-(2-methoxyphenyl)-2-(6-methoxypyridin-3-yl)-8-oxo-8,9-dihydro-7H-purine-6-carboxamide], for which the concentration for half-maximal inhibition (IC50) against mTOR fell in the range of 10.1 to 20 µM.

As to `NC(=O)c1nc(-c2cccc(O)c2)nc2c1[nH]c(=O)n2-c1ccc(C(F)(F)F)cc1` [Compound 22, 2-(3-hydroxyphenyl)-8-oxo-9-(4-(trifluoromethyl)phenyl)-8,9-dihydro-7H-purine-6-carboxamide], the half-maximal inhibitory concentration (IC50) against mTOR is > 30 µM.

As to `NC(=O)c1nc(-c2cccc(O)c2)nc2c1[nH]c(=O)n2Cc1ccccc1` [Compound 23, 9-benzyl-2-(3-hydroxyphenyl)-8-oxo-8,9-dihydro-7H-purine-6-carboxamide], the melting point was 362 to 366 °C. For the same compound, the IC50 at mTOR was > 30 µM.

On mTOR, `NC(=O)c1nc(-c2cccc(O)c2)nc2c1[nH]c(=O)n2-c1ccccc1OC(F)(F)F` [Compound 24, 2-(3-hydroxyphenyl)-8-oxo-9-(2-(trifluoromethoxy)phenyl)-8,9-dihydro-7H-purine-6-carboxamide] displayed a concentration for half-maximal inhibition (IC50) of 5.1 to 10 µM.

As for `NC(=O)c1nc(-c2cccc(O)c2)nc2c1[nH]c(=O)n2-c1ccc(Cl)cc1Cl` [Compound 25, 9-(2,4-dichlorophenyl)-2-(3-hydroxyphenyl)-8-oxo-8,9-dihydro-7H-purine-6-carboxamide], the melting point lay within 375 to 377 °C. On mTOR, this compound came in with an IC50 of 5.1 to 10 µM.

On to `COc1ccccc1-n1c(=O)[nH]c2c(C(N)=O)nc(-c3cncc(F)c3)nc21` [Compound 30, 2-(5-fluoropyridin-3-yl)-9-(2-methoxyphenyl)-8-oxo-8,9-dihydro-7H-purine-6-carboxamide], for which the half-inhibitory concentration (IC50) on mTOR lay in the range of 5.1 to 10 µM.

As for `COc1ccccc1-n1c(=O)[nH]c2c(C(N)=O)nc(C3CCN(Cc4ccccc4)CC3)nc21` [Compound 31, 2-(1-benzylpiperidin-4-yl)-9-(2-methoxyphenyl)-8-oxo-8,9-dihydro-7H-purine-6-carboxamide], the IC50 at mTOR was > 30 µM.

`CO[C@H]1CC[C@@H](n2c(=O)[nH]c3c(C(N)=O)nc(-c4cnc5nc[nH]c5c4)nc32)CC1` [Compound 168, 2-(1H-Imidazo[4,5-b]pyridin-6-yl)-9-(cis-4-methoxycyclohexyl)-8-oxo-8,9-dihydro-7H-purine-6-carboxamide]: the melting point is 360 °C (dec.).

Source of the values: patent US7968556B2, “Heteroaryl compounds, compositions thereof, and methods of treatment therewith” (Signal Pharmaceuticals, LLC, priority 2006, dated 2011).
